Laboratory results taken from PMC6375636, “Monotherapy with a low-dose lipopeptide HIV fusion inhibitor maintains long-term viral suppression in rhesus macaques” (PLoS Pathogens, 2019).
Read-outs that look alike come from different tables or passages of the source. Peptide text beside a SMILES is read from it. * marks the point of attachment. Palmitoyl = CCCCCCCCCCCCCCCC(=O)*

Tests used:
Format in all cases: cell-based
[1] = test system: HIV-1 pseudovirus, primary Env SC422661.8; conditions: Env SC422661.8, subtype B; mean ± SD of 3 assays in triplicate
Outline: (§1)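 HEK293T-derived virus (Env + pSG3Δenv pseudovirus, or molecular-clone isolate), titred as TCID50 on TZM-bl; 100 TCID50 + 3-fold cmpd dilutions, 1 h RT; onto TZM-bl 10^4/well, 48 h 37°C; luciferase read-out.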

[2] = test system: HIV-1 pseudovirus, primary Env JRFL; conditions: subtype B, mean ± SD of 3 assays in triplicate
Outline: as §1

[3] = test system: HIV-1 pseudovirus, primary Env 92UG037.8; conditions: Env 92UG037.8, subtype A; mean ± SD of 3 assays in triplicate
Outline: as §1

[4] = test system: HIV-1 pseudovirus, primary Env CE703010217_B6; conditions: Env CE703010217_B6, subtype C; mean ± SD of 3 assays in triplicate
Outline: as §1

[5] = test system: HIV-1 pseudovirus, primary Env 43–22; conditions: Env 43–22, subtype B'; mean ± SD of 3 assays in triplicate
Outline: as §1

[6] = test system: HIV-1 pseudovirus, primary Env TRO.11; conditions: Env TRO.11, subtype B; mean ± SD of 3 assays in triplicate
Outline: as §1

[7] = test system: HIV-1 pseudovirus, primary Env CH110; conditions: Env CH110, subtype B/C; mean ± SD of 3 assays in triplicate
Outline: as §1

HIV-1 89.6 = conditions: Table 2; 89.6, subtype B, R5X4; mean ± SD of 3 assays in triplicate
Outline: as §1

[8] = test system: HIV-1 pseudovirus, primary Env SF162; conditions: Env SF162, subtype B; mean ± SD of 3 assays in triplicate
Outline: as §1

[9] = test system: HIV-1 pseudovirus, primary Env B02; conditions: Env B02, subtype B'; mean ± SD of 3 assays in triplicate
Outline: as §1

[10] = test system: HIV-1 pseudovirus, primary Env 246_F3_C10_2; conditions: Env 246_F3_C10_2, subtype A/C; mean ± SD of 3 assays in triplicate
Outline: as §1

[11] = test system: HIV-1 pseudovirus, primary Env GX11.13; conditions: Env GX11.13, subtype A/E; mean ± SD of 3 assays in triplicate
Outline: as §1

HIV-1JRCSF = molecular target: HIV-1JRCSF
Outline: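 Inhibition was scored by luciferase after 48 h infection of TZM-bl cells at 37°C, using 100 TCID50 of HEK293T-produced virus preincubated 1 h at room temperature with threefold-diluted compound.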

HIV-1 WITO.c/2474 = conditions: Table 2; WITO.c/2474, subtype B, R5; mean ± SD of 3 assays in triplicate
Outline: as §1

HIV-1 NL4-3 = conditions: Table 2; NL4-3, subtype B, X4; mean ± SD of 3 assays in triplicate
Outline: as §1

[12] = test system: HIV-1 pseudovirus, primary Env 398-F1_F6_20; conditions: Env 398-F1_F6_20, subtype A; mean ± SD of 3 assays in triplicate
Outline: as §1

[13] = test system: HIV-1 pseudovirus, primary Env X2278_C2_B6; conditions: Env X2278_C2_B6, subtype B; mean ± SD of 3 assays in triplicate
Outline: as §1

[14] = test system: HIV-1 pseudovirus, primary Env CH120.6; conditions: Env CH120.6, subtype B/C; mean ± SD of 3 assays in triplicate
Outline: as §1

[15] = test system: HIV-1 pseudovirus, primary Env Du156; conditions: Env Du156, subtype C; mean ± SD of 3 assays in triplicate
Outline: as §1

[16] = test system: HIV-1 pseudovirus, primary Env 92RW020; conditions: Env 92RW020, subtype A; mean ± SD of 3 assays in triplicate
Outline: as §1

[17] = test system: HIV-1 pseudovirus, primary Env CAP210.2.00.E8; conditions: Env CAP210.2.00.E8, subtype C; mean ± SD of 3 assays in triplicate
Outline: as §1

[18] = test system: replication-competent HIV-1 isolates; conditions: mean of the ten isolates of Table 2; read-out: Mean IC50 over the replication-competent isolates
Outline: as §1

HIV-1 R3A = conditions: Table 2, subtype B, R5X4, mean ± SD of 3 assays in triplicate
Outline: as §1

[19] = test system: HIV-1 pseudovirus, primary Env BJOX002000.03.2; conditions: Env BJOX002000.03.2, subtype B/C; mean ± SD of 3 assays in triplicate
Outline: as §1

[20] = test system: HIV-1 pseudovirus, primary Env X1632-S2-B10; conditions: Env X1632-S2-B10, subtype G; mean ± SD of 3 assays in triplicate
Outline: as §1

[21] = test system: HIV-1 pseudovirus, primary Env CH119.10; conditions: Env CH119.10, subtype B/C; mean ± SD of 3 assays in triplicate
Outline: as §1

**Q.** What does the source list for CCCCCCCCCCCCCCCC(=O)NCCCC[C@H](NC(=O)[C@H](CCC(=O)O)NC(=O)[C@H](CC(C)C)NC(=O)[C@H](CCCCN)NC(=O)[C@H](CCCCN)NC(=O)[C@H](CC(C)C)NC(=O)[C@H](CCC(=O)O)NC(=O)[C@H](CCC(=O)O)NC(=O)[C@H](CCC(=O)O)NC(=O)[C@H](CC(N)=O)NC(=O)[C@H](CCCCN)NC(=O)[C@H](CCCCN)NC(=O)[C@H](CCC(N)=O)NC(=O)[C@H](CCC(N)=O)NC(=O)[C@H](CCC(=O)O)NC(=O)[C@H](CCC(=O)O)NC(=O)[C@H](C)NC(=O)[C@H](CCCCN)NC(=O)[C@H](CCCCN)NC(=O)[C@H](CC(C)C)NC(=O)[C@H](CC(C)C)NC(=O)[C@H](CCC(=O)O)NC(=O)[C@H](CCC(=O)O)NC(=O)[C@@H](NC(=O)[C@H](CCCCN)NC(=O)[C@H](CCC(N)=O)NC(=O)[C@H](CCC(=O)O)NC(=O)[C@H](Cc1c[nH]c2ccccc12)NC(C)=O)[C@@H](C)CC)C(N)=O [LP-52, reference compound] (Ac-WEQKIEELLKKAEEQQKKNEEELKKLEK(Palmitoyl)-NH2)?
**A.** IC50 [1]: 0.00939 ± 0.00176 nM; IC50 [2]: 0.0467 ± 0.00696 nM; IC50 [3]: 0.0282 ± 0.00827 nM; IC50 [4]: 0.0117 ± 0.00137 nM; IC50 [5]: 0.00783 ± 0.00074 nM; IC50 [6]: 0.0206 ± 0.00267 nM; IC50 [7]: 0.00798 ± 0.0013 nM; IC50 (HIV-1 89.6): 0.0175 ± 0.00205 nM; IC50 [8]: 0.0264 ± 0.00381 nM; IC50 [9]: 0.0149 ± 0.00155 nM; IC50 [10]: 0.0175 ± 0.00191 nM; IC50 [11]: 0.0087 ± 0.00088 nM; IC50 (HIV-1JRCSF; Fig 1, replication-competent virus, mean ± SD of three assays in triplicate, read-out: Anti-HIV activity (IC50, pM) JRCSF infection): 7.47 ± 1.9 pM; IC50 (HIV-1JRCSF; Table 2, JR-CSF, subtype B, R5, mean ± SD of 3 assays in triplicate, read-out: Mean IC50): 8.02 ± 3.59 pM; IC50 (HIV-1 WITO.c/2474): 0.00529 ± 0.00161 nM; IC50 (HIV-1 NL4-3): 0.0045 ± 0.00249 nM; IC50 [12]: 0.00948 ± 0.00174 nM; IC50 [13]: 0.00117 ± 0.00022 nM; IC50 [14]: 0.0199 ± 0.00148 nM; IC50 [15]: 0.00466 ± 0.00075 nM; IC50 [16]: 0.0393 ± 0.00151 nM; IC50 [17]: 0.0393 ± 0.00357 nM; IC50 [18]: 0.0169 nM; IC50 (HIV-1 R3A): 0.0136 ± 0.00199 nM; IC50 [19]: 0.0368 ± 0.00293 nM; IC50 [20]: 0.0245 ± 0.00239 nM; IC50 [21]: 0.0106 ± 0.00162 nM
